Tested on: 3T3 L1 fibroblasts
Experiment: Glucose transport activity assay (14C-2-deoxy-D-glucose uptake)
Assay type: cell-based
Conditions: EC (effective concentration) for increase in glucose transport; 14C-2-deoxy-D-glucose, 3T3 L1 cells; read-out: Concentration (μM) to reach >150% activity of vehicle control
Procedure: Glucose Transport Activity Assay.
Stimulation of the insulin receptor leads to the transport of glucose from the blood into cells, thus modulating blood glucose levels. 3T3 L1 fibroblasts (ATCC) were grown in Dulbecco's modified Eagle's medium (DMEM) with 10% fetal bovine serum (FBS). The cells were plated at a density of 3×10^4 cells/well in 24-well plates. Two days after confluence was reached, the cells were treated for 3 days with 0.5 mM isobutylmethylxanthine (IBMX), 1 μM dexamethasone, and 1.7 μM insulin. The cells were then transferred to DMEM with 10% FBS and supplemented with 1.7μM insulin for 2 more days. The cells were maintained in DMEM with 10% FBS for an additional 4 days. Finally the cells were serum-starved overnight in 0.1% bovine serum albumin (BSA) in DMEM.
The following day, the medium was replaced with 150 mM NaCl, 1.7 mM KCl, 0.9 mM CaCl2, K2HPO4 (pH 7.4) to which were added either the experimental compounds or their vehicle (DMSO). Insulin or its vehicle (0.01% BSA) was diluted in the assay buffer (containing test compound or vehicle, respectively) to final concentration of […]. After incubation for 30 min at 37° C., 5 μCi/ml ^14C-2-deoxy-D-glucose was added, and the incubation was continued for additional 30 min at 37° C. The cells were then washed 3 times with ice-cold PBS/20 mM glucose and lysed in 250 μl of lysis buffer (50 mM HEPES pH 7.6, 1% Triton X-100) for 30 min at room temperature. Radioactivity in the lysate was quantified by scintillation counting.
Once ^14C-2-deoxy-D-glucose is transported into the cell, it is not released. Glucose transport is, therefore, proportional to the amount of radioactivity in the lysate. The concentration of compound necessary to produce an increase in glucose transport to greater than 150% of the vehicle control (generally representing the sum of the standard deviation of the vehicle control plus the largest standard deviation of a test sample) was recorded as the EC (effective concentration). Shown in FIG. 3 is glucose uptake by cells at various concentrations when treated with Compound 13 and Compound 15.

Compound | EC (150% of vehicle control)
C=CCN=C(Nc1ccc2ccc(NS(=O)(=O)c3ccc(Cl)c(C(=O)O)c3)cc2c1)Nc1ccc2ccc(NS(=O)(=O)c3ccc(Cl)c(C(=O)O)c3)cc2c1 [Compound 168, 5-({[7-({(1E)-2-aza-1-[(7-{[(3-carboxy-4-chlorophenyl)sulfonyl]amino}(2-naphthyl))amino]penta-1,4-dienyl}amino)(2-naphthyl)]amino}sulfonyl)-2-chlorobenzoic acid] | >32 µM
CN=C(Nc1ccc2ccc(NS(=O)(=O)c3ccc(Cl)c(C(=O)O)c3)cc2c1)Nc1ccc2ccc(NS(=O)(=O)c3ccc(Cl)c(C(=O)O)c3)cc2c1 [Compound 162, 5-({[7-({(1E)-2-aza-1-[(7-{[(3-carboxy-4-chlorophenyl)sulfonyl]amino}(2-naphthyl))amino]prop-1-enyl}amino)(2-naphthyl)]amino}sulfonyl)-2-chlorobenzoic acid] | >32 µM
5-({[7-({[(7-{[(3-carboxy-4-chlorophenyl)amino]sulfonyl}(2-naphthyl))amino]iminomethyl}amino)(2-naphthyl)]sulfonyl}amino)-2-chlorobenzoic acid [Compound 160] | 3.2 µM

Same assay, conditions: Mus musculus; EC (effective concentration) for increase in glucose transport; 14C-2-deoxy-D-glucose, 3T3 L1 cells; read-out: Concentration (μM) to reach >150% activity of vehicle control

Compound | EC (150% of vehicle control)
O=C(Nc1ccc2ccc(S(=O)(=O)Nc3ccc(C(=O)O)c(O)c3)cc2c1)Nc1ccc2ccc(S(=O)(=O)Nc3ccc(C(=O)O)c(O)c3)cc2c1 [Compound 35, 4-{[(7-{[N-(7-{[(4-carboxy-3-hydroxyphenyl)amino]sulfonyl}(2-naphthyl))carbamoyl]amino}(2-naphthyl))sulfonyl]amino}-2-hydroxybenzoic acid] | 32 µM
O=C(Nc1ccc2cc(S(=O)(=O)Nc3c(F)c(F)cc(C(=O)O)c3F)ccc2c1)Nc1ccc2cc(S(=O)(=O)Nc3c(F)c(F)cc(C(=O)O)c3F)ccc2c1 [Compound 177, 3-{[(6-{[(6-{[(3-carboxy-2,5,6-trifluorophenyl)amino]sulfonyl}(2-naphthyl))amino]carbonylamino}(2-naphthyl))sulfonyl]amino}-2,4,5-trifluorobenzoic acid] | > 32 µM
O=C(Nc1ccc2c(O)cc(S(=O)(=O)Nc3cccc(CO)c3)cc2c1)Nc1ccc2c(O)cc(S(=O)(=O)Nc3cccc(CO)c3)cc2c1 [Compound 82, N-[5-hydroxy-7-({[3-(hydroxymethyl)phenyl]amino}sulfonyl)(2-naphthyl)]{[5-hydroxy-7-({[3-(hydroxymethyl)phenyl]amino}sulfonyl)(2-naphthyl)]amino}carboxamide] | 3.2 µM
O=C(Nc1ccc2ccc(S(=O)(=O)O)cc2c1)Nc1ccc2ccc(S(=O)(=O)Nc3ccc([N+](=O)[O-])c(C(=O)O)c3)cc2c1 [Compound 37, 2-nitro-5-{[(7-{[N-(7-sulfo(2-naphthyl))carbamoyl]amino}(2-naphthyl))sulfonyl]amino}benzoic acid] | 3.2 µM
O=C(Nc1ccc2ccc(S(=O)(=O)Nc3ccc(Cl)c(S(=O)(=O)O)c3)cc2c1)Nc1ccc2ccc(S(=O)(=O)Nc3ccc(Cl)c(S(=O)(=O)O)c3)cc2c1 [Compound 91, 2-chloro-5-{[(7-{[(7-{[(4-chloro-3-sulfophenyl)amino]sulfonyl}(2-naphthyl))amino]carbonylamino}(2-naphthyl))sulfonyl]amino}benzenesulfonic acid] | 3.2 µM
O=C(Nc1ccc2cc(S(=O)(=O)N3CCCC(C(=O)O)C3)ccc2c1)Nc1ccc2cc(S(=O)(=O)N3CCCC(C(=O)O)C3)ccc2c1 (stereo not drawn) [Compound 181, 1-({6-[({6-[(3-carboxypiperidyl)sulfonyl]-2-naphthyl}amino)carbonylamino]-2-naphthyl}sulfonyl)piperidine-3-carboxylic acid] | 3.2 µM
O=C(Nc1ccc2ccc(S(=O)(=O)O)cc2c1)Nc1ccc2ccc(S(=O)(=O)Nc3ccc(S(=O)(=O)O)cc3)cc2c1 [Compound 20, 7-{[(7-{[(4-sulfophenyl)amino]sulfonyl}-2-naphthyl)amino]carbonylamino}naphthalene-2-sulfonic acid] | 3.2 µM
O=C(Nc1ccc2cc(S(=O)(=O)Nc3cccc(S(=O)(=O)O)c3)ccc2c1)Nc1ccc2cc(S(=O)(=O)Nc3cccc(S(=O)(=O)O)c3)ccc2c1 [Compound 169, 3-{[(6-{[(6-{[(3-sulfophenyl)amino]sulfonyl}-2-naphthyl)amino]carbonylamino}-2-naphthyl)sulfonyl]amino}benzenesulfonic acid] | 3.2 µM
O=C(Nc1ccc2ccc(S(=O)(=O)O)cc2c1)Nc1ccc2ccc(S(=O)(=O)Nc3cccc(C(=O)O)c3O)cc2c1 [Compound 30, 2-hydroxy-3-{[(7-{[N-(7-sulfo(2-naphthyl))carbamoyl]amino}(2-naphthyl))sulfonyl]amino}benzoic acid] | 3.2 µM
O=C(Nc1ccc2ccc(S(=O)(=O)Nc3ccc(Cl)c(CO)c3)cc2c1)Nc1ccc2ccc(S(=O)(=O)Nc3ccc(Cl)c(CO)c3)cc2c1 [Compound 85, N-[7-({[4-chloro-3-(hydroxymethyl)phenyl]amino}sulfonyl)(2-naphthyl)]{[7-({[4-chloro-3-(hydroxymethyl)phenyl]amino}sulfonyl)(2-naphthyl)]amino}carboxamide] | 32 µM
O=C(Nc1ccc2c(O)cc(S(=O)(=O)Nc3cccc(C(=O)O)c3Cl)cc2c1)Nc1ccc2c(O)cc(S(=O)(=O)Nc3cccc(C(=O)O)c3Cl)cc2c1 [Compound 59, 3-{[(7-{[N-(7-{[(3-carboxy-2-chlorophenyl)amino]sulfonyl}-5-hydroxy(2-naphthyl))carbamoyl]amino}-4-hydroxy(2-naphthyl))sulfonyl]amino}-2-chlorobenzoic acid] | 32 µM
O=C(Nc1ccc2c(O)cc(S(=O)(=O)Nc3ccc(O)c(C(=O)O)c3)cc2c1)Nc1ccc2c(O)cc(S(=O)(=O)Nc3ccc(O)c(C(=O)O)c3)cc2c1 [Compound 43, 5-{[(7-{[N-(7-{[(3-carboxy-4-hydroxyphenyl)amino]sulfonyl}-5-hydroxy(2-naphthyl))carbamoyl]amino}-4-hydroxy(2-naphthyl))sulfonyl]amino}-2-hydroxybenzoic acid] | 10 µM
O=C(Nc1ccc2cc(S(=O)(=O)Nc3cc(C(=O)O)cc(C(=O)O)c3)ccc2c1)Nc1ccc2cc(S(=O)(=O)Nc3cc(C(=O)O)cc(C(=O)O)c3)ccc2c1 [Compound 175, 5-{[(6-{[(6-{[(3,5-dicarboxyphenyl)amino]sulfonyl}-2-naphthyl)amino]carbonylamino}-2-naphthyl)sulfonyl]amino}benzene-1,3-dicarboxylic acid] | 3.2 µM
COC(=O)c1ccc(OC)c(NS(=O)(=O)c2ccc3ccc(NC(=O)Nc4ccc5ccc(S(=O)(=O)Nc6cc(C(=O)OC)ccc6OC)cc5c4)cc3c2)c1 [Compound 65, methyl 4-methoxy-3-({[7-({[7-({[2-methoxy-5-(methoxycarbonyl)phenyl]amino}sulfonyl)(2-naphthyl)]amino}carbonylamino)(2-naphthyl)]sulfonyl}amino)benzoate] | > 32 µM
O=C(Nc1ccc2c(O)cc(S(=O)(=O)Nc3ccc(Cl)c(C(=O)O)c3)cc2c1)Nc1ccc2c(O)cc(S(=O)(=O)Nc3ccc(Cl)c(C(=O)O)c3)cc2c1 [Compound 49, 5-{[(7-{[N-(7-{[(3-carboxy-4-chlorophenyl)amino]sulfonyl}-5-hydroxy(2-naphthyl))carbamoyl]amino}-4-hydroxy(2-naphthyl))sulfonyl]amino}-2-chlorobenzoic acid] | 3.2 µM

Reference: US7071231B2, “Naphthalene ureas as glucose uptake enhancers” (Telik, Inc., priority 1999, dated 2006)
